According to patent EP4667463A1, “DOMIDE MOLECULAR GLUE DERIVATIVE AND USE THEREOF” (CSPC Megalith Biopharmaceutical Co., Ltd., priority 2023, dated 2024):
Where two headings read alike, the source gives them in different places.

What was measured:
[1] = test system: SK-BR-3; test: In vitro anti-tumor activity of molecular glue compounds, CellTiter-Lumi cell viability assay; assay type: cell-based; details: Homo sapiens, SK-BR-3 cells
Method: (§1) Different tumor cells were all commercially available and used for evaluating the anti-tumor inhibitory activity of the compounds of the present disclosure. Various tumor cells were cultured until the cell confluency reached 80%-90%, with cell viability above 90% as determined by trypan blue exclusion. Then, the cells were plated. Specifically, after cell density optimization, 100 µL of each of the cell suspensions of HL-60 and SK-BR-3 cells (cell density: 3000 cells/well), Romas cells (cell density: 6000 cells/well), NCI-H929 cells (cell density: 4000 cells/well), and NCI-H82 cells (cell density: 5000 cells/well) was plated in a BeyoGold™ ultra-low attachment black clear-bottom 96-well plate (Cat. No.: FULA965-24pcs), and the plate was incubated overnight. The next day, after the adherent cells were adhered to the wall and suspension cells requiring aggregation were aggregated, 50 µL of culture medium was aspirated from each well of the 96-well plate. Then, the compounds diluted with the corresponding culture media were added. Specifically, the compounds were serially diluted at a 5-fold gradient starting from the highest concentration of 1 µM, with a final DMSO concentration of 1%o, and the test compounds were then added to the cell culture plate. The plate was incubated in an incubator at 37 °C with 5% carbon dioxide for 96 h. Before measurement, the CellTiter-Lumi™ luminescent cell viability assay reagent was equilibrated to room temperature in the dark. Then, 50 µL of the CellTiter-Lumi™ (Cat. No.: C0065XL) cell viability assay reagent was added to each well of the 96-well plate. The plate was shaken in the dark on a shaker at 300 rpm for 10 min to ensure complete cell lysis. After the reaction was completed, the luminescence was measured on a multi-mode microplate reader. The cell inhibition rate was determined according to the luminescence. Then, a cell viability curve was generated by Graphpad Prism 8.0, and the IC50 values were calculated. The compounds of the present disclosure were tested for activity by the method described above. Table 1. Cell inhibitory activity (IC50 values)

[2] = target: T1, GSPT1 protein (Homo sapiens, UniProt P15170+Q96SW2); test: GSPT1 protein degradation, Nano-Glo HiBiT assay in HiBiT-GSPT1 HEK293T cells; assay type: cell-based; details: 24 h
T1 construct: An HiBiT protein tag was added to the N-terminus of the endogenous GSPT1 protein of HEK293T cells by CRISPR gene editing technology; endogenous in cells; host or cells: HEK293T (CRISPR knock-in HiBiT-GSPT1 cell strain)
T1 sequence (P15170 whole entry): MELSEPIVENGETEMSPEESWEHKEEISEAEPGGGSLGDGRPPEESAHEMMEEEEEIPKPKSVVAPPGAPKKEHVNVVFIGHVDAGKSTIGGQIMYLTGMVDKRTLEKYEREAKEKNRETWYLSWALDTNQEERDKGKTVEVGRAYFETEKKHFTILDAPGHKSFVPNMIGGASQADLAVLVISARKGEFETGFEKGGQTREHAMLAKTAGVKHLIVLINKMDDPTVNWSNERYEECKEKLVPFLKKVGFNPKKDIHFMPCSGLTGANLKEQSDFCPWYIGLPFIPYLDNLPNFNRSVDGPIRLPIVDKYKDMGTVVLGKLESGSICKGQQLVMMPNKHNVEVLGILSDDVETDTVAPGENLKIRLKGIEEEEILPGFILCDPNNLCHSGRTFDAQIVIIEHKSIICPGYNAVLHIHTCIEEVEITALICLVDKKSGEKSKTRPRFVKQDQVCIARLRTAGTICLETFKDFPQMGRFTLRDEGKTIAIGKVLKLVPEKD
T1 sequence (Q96SW2 whole entry): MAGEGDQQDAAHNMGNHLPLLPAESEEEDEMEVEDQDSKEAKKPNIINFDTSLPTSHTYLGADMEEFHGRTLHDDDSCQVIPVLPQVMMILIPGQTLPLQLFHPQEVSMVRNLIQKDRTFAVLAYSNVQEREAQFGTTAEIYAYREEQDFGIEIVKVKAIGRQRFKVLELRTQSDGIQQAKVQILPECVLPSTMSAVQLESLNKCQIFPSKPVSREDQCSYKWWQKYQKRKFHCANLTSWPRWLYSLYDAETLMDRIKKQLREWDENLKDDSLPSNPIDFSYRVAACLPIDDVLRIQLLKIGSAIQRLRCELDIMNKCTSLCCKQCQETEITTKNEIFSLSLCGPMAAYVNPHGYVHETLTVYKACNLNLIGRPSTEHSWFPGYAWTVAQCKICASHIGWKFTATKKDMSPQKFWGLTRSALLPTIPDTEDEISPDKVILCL
T1 sequence (Q16531 whole entry partner): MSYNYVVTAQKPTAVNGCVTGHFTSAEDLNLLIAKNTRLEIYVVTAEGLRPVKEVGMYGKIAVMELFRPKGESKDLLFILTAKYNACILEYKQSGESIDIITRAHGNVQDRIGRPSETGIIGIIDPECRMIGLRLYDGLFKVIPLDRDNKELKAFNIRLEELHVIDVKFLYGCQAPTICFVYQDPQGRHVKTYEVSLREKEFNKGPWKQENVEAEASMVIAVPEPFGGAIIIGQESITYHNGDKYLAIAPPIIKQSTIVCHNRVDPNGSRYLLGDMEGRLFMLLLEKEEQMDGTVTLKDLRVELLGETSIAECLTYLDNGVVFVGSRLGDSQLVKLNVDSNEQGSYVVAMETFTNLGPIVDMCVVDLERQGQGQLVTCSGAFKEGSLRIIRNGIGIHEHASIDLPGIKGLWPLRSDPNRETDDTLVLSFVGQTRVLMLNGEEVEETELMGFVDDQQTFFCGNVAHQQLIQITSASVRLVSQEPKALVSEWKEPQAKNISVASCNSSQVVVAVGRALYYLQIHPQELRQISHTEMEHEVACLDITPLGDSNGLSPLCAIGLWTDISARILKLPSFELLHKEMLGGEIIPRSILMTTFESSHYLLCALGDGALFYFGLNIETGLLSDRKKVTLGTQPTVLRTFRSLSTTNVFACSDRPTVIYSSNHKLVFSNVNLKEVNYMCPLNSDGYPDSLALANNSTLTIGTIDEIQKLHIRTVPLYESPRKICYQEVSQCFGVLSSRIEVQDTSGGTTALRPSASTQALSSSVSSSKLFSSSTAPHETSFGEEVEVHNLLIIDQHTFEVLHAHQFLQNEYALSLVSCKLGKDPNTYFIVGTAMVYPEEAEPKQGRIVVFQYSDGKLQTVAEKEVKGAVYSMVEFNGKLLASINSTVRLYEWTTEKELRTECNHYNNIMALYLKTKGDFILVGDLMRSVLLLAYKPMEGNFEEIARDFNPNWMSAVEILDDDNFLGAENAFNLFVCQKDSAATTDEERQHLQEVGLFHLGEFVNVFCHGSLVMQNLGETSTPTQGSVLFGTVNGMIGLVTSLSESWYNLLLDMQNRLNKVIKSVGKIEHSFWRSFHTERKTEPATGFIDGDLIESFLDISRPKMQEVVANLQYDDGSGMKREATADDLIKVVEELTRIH
Method: This experiment was performed to evaluate the targeting property of the compounds. An HiBiT protein tag was added to the N-terminus of the endogenous GSPT1 protein of HEK293T cells by CRISPR gene editing technology, so as to construct a HiBiT-GSPT1 HEK293T stably transfected cell strain. HiBiT-GSPT1 HEK293T cells were cultured in DMEM containing 10% FBS and 1% PenStrep. When the cell confluency reached 80%-90%, the cells were digested with trypsin, pipetted into single cells, and resuspended in a corresponding culture medium to form a cell suspension. The cells were counted using Cell Countess (NanoEnTek, #Cat. EVE-MC2), and the cell viability was determined by trypan blue exclusion to ensure that the cell viability was above 90%. The cells were plated in a 384-well plate (Corning, #Cat. 3764) at 10,000 cells/40 µL of cell suspension per well, and cultured in an incubator at 37 °C with 5% CO2 overnight. The next day, the test compounds were added to the 384-well plate under conditions of 30 µM highest concentration, 5-fold serial dilution, and 1‰ DMSO. The plate was incubated in the incubator at 37 °C with 5% CO2 for another 24 h. Before measurement, the Nano-Glo HiBiT reagent was equilibrated to room temperature, the LgBiT protein was diluted with the Nano-Glo HiBiT Lytic buffer according to a dilution ratio of 1:100, and the Nano-Glo@HiBiT Lytic substrate was diluted to an appropriate volume according to a ratio of 1:50. After the cell culture plate was equilibrated at room temperature for 10 min, 40 µL of Nano-Glo HiBiT Lytic assay reagent was added to each well. The plate was shaken on a microplate shaker at a rotation speed of 300 rpm for 3 min in the dark. After the reaction was completed, the luminescencevalues were read on BMG PHERASTAR FS (BMG LRBTECH, Cat. No.: PHERAstar FSX), and the DC50 values were calculated using GraphPad Prism 8.0. Table 2. GSPT1 protein degradation

[3] = test system: HL-60; test: In vitro anti-tumor activity of molecular glue compounds, CellTiter-Lumi cell viability assay; assay type: cell-based; details: Homo sapiens; HL-60 cells, 96 h incubation; read-out: Cell inhibitory activity (IC50 values) HL-60
Method: as §1

[4] = test system: NCI-H82; test: as above; assay type: cell-based; details: Homo sapiens; NCI-H82 cells, 96 h incubation; read-out: Cell inhibitory activity (IC50 values) NCI-H82
Method: as §1

[5] = test system: NCI-H929; test: as above; assay type: cell-based; details: Homo sapiens; NCI-H929 cells, 96 h incubation; read-out: Cell inhibitory activity (IC50 values) NCI-H929
Method: as §1

[6] = test system: Romas; test: as above; assay type: cell-based; details: Romas cells, 96 h incubation; read-out: Cell inhibitory activity (IC50 values) Romas
Method: as §1

[7] = in vitro; details: human, microsomes
Method: (§3) The final concentration of the substrate in the incubation system was 1 µM, and the incubation time was 60 min. Sampling was performed at 0 min, 5 min, 15 min, 30 min, and 60 min. The reaction was stopped with glacial acetonitrile containing an internal standard (testosterone-d3 at a concentration of 10 ng/mL). Verapamil was used as a positive control. […] The natural logarithm of the remaining percentage was subjected to linear fitting with time to determine the elimination rate constant (k).

[8] = in vitro; details: monkey, microsomes
Method: as §3

[9] = in vitro; details: dog, microsomes
Method: as §3

[10] = in vitro; details: rat, microsomes
Method: as §3

[11] = in vitro; details: mouse, microsomes
Method: as §3

[12] = Metabolic stability in liver microsomes; details: Human liver microsomes, after 60 min of incubation
Method: as §3

[13] = Metabolic stability in liver microsomes; details: Monkey liver microsomes, after 60 min of incubation
Method: as §3

[14] = Metabolic stability in liver microsomes; details: Dog liver microsomes, after 60 min of incubation
Method: as §3

[15] = Metabolic stability in liver microsomes; details: Rat liver microsomes, after 60 min of incubation
Method: as §3

[16] = Metabolic stability in liver microsomes; details: Mouse liver microsomes, after 60 min of incubation
Method: as §3

[17] = test system: AsPc-1; test: Activity in cell strains with high expression of efflux pump proteins, cell viability assay; assay type: cell-based; details: Homo sapiens, ASPC1, AsPc-1 cells, 96 h
Method: (§2) Three types of cells used for evaluating the activity of the compounds of the present disclosure against a cell strain with high expression of efflux pump proteins were all purchased from Nanjing Cobioer Biosciences Co., Ltd., and all the cells were derived from ATCC (American Type Culture Collection). Various tumor cells were cultured until the cell confluency reached 80%-90%, with cell viability above 90% as determined by trypan blue exclusion. Then, the cells were plated. Specifically, after cell density optimization, 75 µL of each of three cell suspensions of SNU-5, HCT-15, and AsPc-1 cells (3000 cells/well) was inoculated into a BeyoGold™ ultra-low attachment black clear-bottom 96-well plate (Cat. No.: FULA965-24pcs), and the plate was incubated overnight in a cell incubator at 37 °C with carbon dioxide. The next day, after the cells adhered to the wall, 75 µL of the compounds diluted with the corresponding culture media were added. Specifically, the compounds were serially diluted at a 5-fold gradient starting from the highest concentration of 1 µM, with a final DMSO concentration of 1‰, and the test compounds were then added to the cell culture plate. The plate was incubated in an incubator at 37 °C with 5% carbon dioxide for 96 h. Before measurement, the CellTiter-Lumi™ luminescent cell viability assay reagent was equilibrated to room temperature in the dark. Then, 50 µL of the CellTiter-Lumi™ (Cat. No.: C0065XL) cell viability assay reagent was added to each well of the 96-well plate. The plate was shaken in the dark on a shaker at 300 rpm for 10 min to ensure complete cell lysis. After the reaction was completed, the chemiluminescence intensity was measured on a multi-mode microplate reader. The cell viability inhibition rate was determined according to the chemiluminescence intensity. Then, a cell viability curve was generated by Graphpad Prism 8.0, and the IC50 values were calculated. Table 3. Activity of the compounds of the present disclosure in cell strains with high expression of efflux pump proteins (IC50 value)

[18] = test system: HCT-15; test: as above; assay type: cell-based; details: Homo sapiens, HCT-15 cells, 96 h
Method: as §2

[19] = test system: SNU-5; test: as above; assay type: cell-based; details: Homo sapiens, SNU-5 cells, 96 h
Method: as §2

[20] = 96 h incubation, read-out: Cell inhibitory activity (IC50 values) SK-BR-3

| SMILES | IC50 ([1]; read-out: SK-BR-3 IC50) [nM] | DC50 [2] [nM] | IC50 [3] [nM] | IC50 [4] [nM] | IC50 [5] [nM] | IC50 [6] [nM] | IC50 [1, 20] [nM] | CLint scaled at 1 µM [7] [mL/min/kg] | CLint scaled at 1 h, 1 µM [7] [mL/min/kg] | half-life at 1 µM [7] [h] | CLint scaled at 1 µM [8] [mL/min/kg] | CLint scaled at 1 h, 1 µM [8] [mL/min/kg] | half-life at 1 µM [8] [h] | CLint scaled at 1 µM [10] [mL/min/kg] | CLint scaled at 1 h, 1 µM [10] [mL/min/kg] | half-life at 1 µM [10] [h] | Parent drug remaining % [12] [%] | Parent drug remaining % [13] [%] | Parent drug remaining % [14] [%] | Parent drug remaining % [15] [%] | other results |
| --- | --- | --- | --- | --- | --- | --- | --- | --- | --- | --- | --- | --- | --- | --- | --- | --- | --- | --- | --- | --- | --- |
| CC(C)(C)OC(=O)N1CCCC(OCCCc2ccc(NC(=O)NCc3ccc4c(c3)CN(C3CCC(=O)NC3=O)C4=O)cc2Cl)C1 (centres unmarked) [Compound A19] | 1.22 | 16 |  |  |  |  |  |  |  |  |  |  |  |  |  |  |  |  |  |  |  |
| O=C1CCC(N2Cc3cc(CNC(=O)Nc4ccc(CCCOC5CCNCC5)c(Cl)c4)ccc3C2=O)C(=O)N1 (centres unmarked) [Compound B61] |  |  | < 10 | 10 to 50 | < 10 | < 10 | < 10 | 7.03 | 5.27 | 4.12 | 13.7 | 10.5 | 2.47 | 19.8 | 14.6 | 2.08 | 83.4 | 79.4 | 86.4 | 71.0 | CLint scaled at 1 µM [9]: 11.8 mL/min/kg; CLint scaled at 1 h, 1 µM [9]: 8.55 mL/min/kg; half-life at 1 µM [9]: 4.88 h; CLint scaled at 1 µM [11]: 32.2 mL/min/kg; CLint scaled at 1 h, 1 µM [11]: 23.7 mL/min/kg; half-life at 1 µM [11]: 2.9 h; Parent drug remaining % [16]: 79.8% |
| O=C1CCC(N2Cc3cc(CNC(=O)Nc4ccc(CCCOC5CNC5)c(Cl)c4)ccc3C2=O)C(=O)N1 (centres unmarked) [Compound B63] |  |  | < 10 | 10 to 50 | < 10 | 10 to 50 | < 10 | 0.19 | 0.189 | 152 | 0.257 | 0.255 | 132 | 1.39 | 1.35 | 29.8 | 98.8 | 101 | 103 | 94.9 | Parent drug remaining % [16]: 102% |
| CNCCOCCc1ccc(NC(=O)NCc2ccc3c(c2)CN(C2CCC(=O)NC2=O)C3=O)cc1Cl (centres unmarked) [Smol006, reference compound] | 32.3 | 274 | 10 to 50 | 50 to 100 | 50 to 100 | > 100 | > 100 |  |  |  |  |  |  |  |  |  |  |  |  |  | IC50 [17]: 50 to 200 nM; IC50 [18]: > 1000 nM; IC50 [19]: > 1000 nM |
